In ChEMBL document CHEMBL1148378 (J Med Chem, 2004):

How the values were obtained:
[1] = molecular target: Matrix metalloproteinase-9 (Homo sapiens, UniProt P14780); assay: Inhibition of Matrix metalloprotease-9
Stromelysin-3 = molecular target: T1, Stromelysin-3 (Mus musculus, UniProt Q02853); assay: Inhibition of Matrix metalloprotease-11
T1 sequence (Q02853 whole entry): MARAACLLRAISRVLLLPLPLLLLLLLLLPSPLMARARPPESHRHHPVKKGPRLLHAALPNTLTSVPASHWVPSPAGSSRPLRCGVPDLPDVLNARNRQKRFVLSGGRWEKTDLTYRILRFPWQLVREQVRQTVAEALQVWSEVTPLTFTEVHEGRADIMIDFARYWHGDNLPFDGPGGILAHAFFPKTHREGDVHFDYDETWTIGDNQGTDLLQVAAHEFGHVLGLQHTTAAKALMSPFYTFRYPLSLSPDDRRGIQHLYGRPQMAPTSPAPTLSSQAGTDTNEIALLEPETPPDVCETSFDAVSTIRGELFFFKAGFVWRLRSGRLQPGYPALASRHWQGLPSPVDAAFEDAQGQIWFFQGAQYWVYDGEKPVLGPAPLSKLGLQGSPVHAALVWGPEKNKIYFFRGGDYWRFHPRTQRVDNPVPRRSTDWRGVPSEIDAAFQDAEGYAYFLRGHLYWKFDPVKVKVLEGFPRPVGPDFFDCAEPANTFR

[2] = molecular target: Matrix metalloproteinase-14 (Homo sapiens, UniProt P50281); assay: Inhibition of Matrix metalloprotease-14
Collagenase 3 = Collagenase 3 (Homo sapiens, UniProt P45452); assay: Inhibition of matrix metalloprotease-13
[3] = molecular target: 72 kDa type IV collagenase (Homo sapiens, UniProt P08253); assay: Inhibition of Matrix metalloprotease-2
Neutrophil collagenase = Neutrophil collagenase (Homo sapiens, UniProt P22894); assay: Inhibition of matrix metalloprotease-8
Interstitial collagenase = molecular target: T2, Interstitial collagenase (Homo sapiens, UniProt P03956); assay: Inhibition of matrix metalloprotease-1
T2 sequence (P03956 whole entry): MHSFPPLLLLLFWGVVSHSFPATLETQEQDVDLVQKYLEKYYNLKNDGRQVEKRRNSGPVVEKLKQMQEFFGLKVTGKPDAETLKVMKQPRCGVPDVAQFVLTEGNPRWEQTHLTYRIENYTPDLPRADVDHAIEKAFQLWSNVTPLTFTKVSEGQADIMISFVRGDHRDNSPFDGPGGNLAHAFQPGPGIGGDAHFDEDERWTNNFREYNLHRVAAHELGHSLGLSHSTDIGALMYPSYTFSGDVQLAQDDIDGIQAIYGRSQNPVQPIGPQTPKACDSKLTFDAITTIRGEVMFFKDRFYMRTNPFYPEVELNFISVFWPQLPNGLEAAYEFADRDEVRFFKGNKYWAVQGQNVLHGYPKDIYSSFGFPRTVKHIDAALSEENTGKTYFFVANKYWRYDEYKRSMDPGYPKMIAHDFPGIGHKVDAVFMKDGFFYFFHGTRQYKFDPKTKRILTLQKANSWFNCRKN

Matrilysin = molecular target: T3, Matrilysin (Homo sapiens, UniProt P09237); assay: Inhibition of Matrix metalloprotease-7
T3 sequence (P09237 whole entry): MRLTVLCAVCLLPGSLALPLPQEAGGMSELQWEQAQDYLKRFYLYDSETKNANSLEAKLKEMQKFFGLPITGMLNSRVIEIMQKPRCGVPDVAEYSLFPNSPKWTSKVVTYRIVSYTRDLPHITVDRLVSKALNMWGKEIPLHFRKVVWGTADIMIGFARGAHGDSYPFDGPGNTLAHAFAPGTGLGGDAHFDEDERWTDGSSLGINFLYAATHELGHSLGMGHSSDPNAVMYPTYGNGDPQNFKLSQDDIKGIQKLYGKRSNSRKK

Sequence of 72 kDa type IV collagenase (P08253 whole entry): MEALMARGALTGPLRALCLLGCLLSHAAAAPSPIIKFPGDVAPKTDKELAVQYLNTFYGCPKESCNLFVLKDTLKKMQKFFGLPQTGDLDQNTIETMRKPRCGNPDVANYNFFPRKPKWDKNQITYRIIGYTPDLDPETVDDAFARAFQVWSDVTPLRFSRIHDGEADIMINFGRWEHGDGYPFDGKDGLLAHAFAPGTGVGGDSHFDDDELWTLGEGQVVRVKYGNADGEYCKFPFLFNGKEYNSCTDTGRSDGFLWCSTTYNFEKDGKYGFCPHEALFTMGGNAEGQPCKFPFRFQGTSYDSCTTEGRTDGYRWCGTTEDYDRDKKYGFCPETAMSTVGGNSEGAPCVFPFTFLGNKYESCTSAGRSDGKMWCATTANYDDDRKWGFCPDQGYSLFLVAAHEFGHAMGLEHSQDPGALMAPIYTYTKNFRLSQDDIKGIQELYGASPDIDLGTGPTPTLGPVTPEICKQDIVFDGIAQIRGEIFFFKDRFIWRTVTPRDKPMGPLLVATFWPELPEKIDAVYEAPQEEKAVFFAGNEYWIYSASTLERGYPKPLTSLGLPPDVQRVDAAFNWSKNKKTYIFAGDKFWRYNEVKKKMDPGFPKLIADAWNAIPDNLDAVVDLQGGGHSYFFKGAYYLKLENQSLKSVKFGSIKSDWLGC
Sequence of Matrix metalloproteinase-9 (P14780 whole entry): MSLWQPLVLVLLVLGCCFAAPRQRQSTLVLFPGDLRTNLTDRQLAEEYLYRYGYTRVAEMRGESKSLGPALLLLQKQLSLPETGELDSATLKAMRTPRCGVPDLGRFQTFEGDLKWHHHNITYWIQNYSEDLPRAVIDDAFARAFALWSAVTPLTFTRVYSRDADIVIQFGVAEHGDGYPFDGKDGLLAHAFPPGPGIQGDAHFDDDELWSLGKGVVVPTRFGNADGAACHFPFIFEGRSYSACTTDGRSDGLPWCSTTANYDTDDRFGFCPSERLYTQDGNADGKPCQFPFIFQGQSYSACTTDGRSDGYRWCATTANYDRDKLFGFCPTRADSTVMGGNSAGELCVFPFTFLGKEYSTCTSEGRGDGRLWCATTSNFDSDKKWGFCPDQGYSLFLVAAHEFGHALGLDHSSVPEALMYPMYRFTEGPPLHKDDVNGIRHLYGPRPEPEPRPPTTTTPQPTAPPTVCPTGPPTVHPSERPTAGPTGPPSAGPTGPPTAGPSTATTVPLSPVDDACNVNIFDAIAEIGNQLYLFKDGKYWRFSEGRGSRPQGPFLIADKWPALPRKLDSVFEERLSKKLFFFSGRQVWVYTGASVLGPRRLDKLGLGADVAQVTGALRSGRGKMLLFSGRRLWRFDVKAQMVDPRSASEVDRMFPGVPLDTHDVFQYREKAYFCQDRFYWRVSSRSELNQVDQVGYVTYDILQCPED
Sequence of Neutrophil collagenase (P22894 whole entry): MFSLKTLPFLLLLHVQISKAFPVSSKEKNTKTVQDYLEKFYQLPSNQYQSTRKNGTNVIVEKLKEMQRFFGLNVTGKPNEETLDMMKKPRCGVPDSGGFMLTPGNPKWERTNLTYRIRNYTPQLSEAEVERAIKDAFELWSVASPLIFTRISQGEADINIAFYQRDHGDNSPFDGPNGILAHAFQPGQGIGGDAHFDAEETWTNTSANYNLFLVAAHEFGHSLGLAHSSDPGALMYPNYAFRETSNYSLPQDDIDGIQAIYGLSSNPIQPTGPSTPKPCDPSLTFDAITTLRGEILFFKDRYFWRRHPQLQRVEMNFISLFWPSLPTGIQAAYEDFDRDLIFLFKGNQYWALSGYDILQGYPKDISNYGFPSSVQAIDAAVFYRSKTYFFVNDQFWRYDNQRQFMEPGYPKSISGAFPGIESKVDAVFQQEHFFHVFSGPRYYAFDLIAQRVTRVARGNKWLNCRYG

SMILES: NC(=O)C(Cc1c[nH]c2ccccc12)NC(=O)C(CSc1ccccc1OC(F)(F)F)CP(=O)(O)C(Cc1ccccc1)NC(=O)OCc1ccccc1 (stereo not given)
- Ki [1]: 148 µM
- Ki (Stromelysin-3): 0.41 µM
- Ki [2]: 30 µM
- Ki (Collagenase 3): 200 µM
- Ki [3]: 200 µM
- Ki (Neutrophil collagenase): 200 µM

SMILES: COc1ccccc1SCC(CP(=O)(O)C(Cc1ccccc1)NC(=O)OCc1ccccc1)C(=O)NC(Cc1c[nH]c2ccccc12)C(N)=O (stereo not given)
- Ki [1]: 35.6 µM
- Ki (Stromelysin-3): 0.23 µM
- Ki [2]: 160 µM
- Ki (Collagenase 3): 15.7 µM
- Ki [3]: 30 µM
- Ki (Neutrophil collagenase): 38.9 µM

SMILES: NC(=O)C(Cc1c[nH]c2ccccc12)NC(=O)C(CCCc1ccccc1)CP(=O)(O)C(Cc1ccccc1)NC(=O)OCc1ccccc1 (stereo not given)
- Ki (Interstitial collagenase): > 2 µM
- Ki (Matrilysin): > 2 µM

SMILES: NC(=O)C(Cc1c[nH]c2ccccc12)NC(=O)C(CSc1ccccc1Br)CP(=O)(O)C(Cc1ccccc1)NC(=O)OCc1ccccc1 (stereo not given)
- Ki [1]: 3.91 µM
- Ki (Stromelysin-3): 0.11 µM
- Ki [2]: 30.1 µM
- Ki (Collagenase 3): 4.7 µM
- Ki [3]: 4.65 µM
- Ki (Neutrophil collagenase): 18.4 µM
